Source: article PMC4125290, “Cyclic di-GMP-dependent Signaling Pathways in the Pathogenic Firmicute Listeria monocytogenes” (PLoS Pathogens, 2014)

Columns and labels:
Test in all cases: HPLC of c-di-GMP hydrolysis to pGpG
Format in all cases: biochemical
Details in all cases: 250 µM c-di-GMP, 1-5 µM enzyme, 37°C
[1] = molecular target: T1, PdeB (Lmo0131), PdeB::His6 (Listeria monocytogenes, UniProt Q8YAJ4)
T1 construct: tag kept

[2] = molecular target: T2, PdeC (Lmo1914), MBP::PdeC (Listeria monocytogenes, UniProt Q8Y5Y9)
T2 construct: MBP fusion (pMAL-c2x), E. coli DH5alpha, amylose resin; MBP kept
T2 sequence (Q8Y5Y9 entry or part of it): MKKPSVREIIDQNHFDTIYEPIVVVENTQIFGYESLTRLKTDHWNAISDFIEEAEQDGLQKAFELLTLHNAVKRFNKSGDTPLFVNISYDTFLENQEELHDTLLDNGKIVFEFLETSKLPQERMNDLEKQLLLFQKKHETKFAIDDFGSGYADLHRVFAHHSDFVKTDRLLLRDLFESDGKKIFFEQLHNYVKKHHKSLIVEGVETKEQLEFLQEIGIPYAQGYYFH

[3] = molecular target: T3, PdeD (Lmo0111), PdeD::His6 (Listeria monocytogenes, UniProt Q8YAK7)
T3 construct: tag kept
T3 sequence (Q8YAK7 entry or part of it): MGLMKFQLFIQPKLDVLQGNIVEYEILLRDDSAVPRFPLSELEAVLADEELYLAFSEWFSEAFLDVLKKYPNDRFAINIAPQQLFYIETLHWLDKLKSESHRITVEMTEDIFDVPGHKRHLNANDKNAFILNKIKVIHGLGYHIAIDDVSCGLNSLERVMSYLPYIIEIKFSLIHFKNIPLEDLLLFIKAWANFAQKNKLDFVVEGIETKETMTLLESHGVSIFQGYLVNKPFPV

T1 sequence (Q8YAJ4 entry or part of it): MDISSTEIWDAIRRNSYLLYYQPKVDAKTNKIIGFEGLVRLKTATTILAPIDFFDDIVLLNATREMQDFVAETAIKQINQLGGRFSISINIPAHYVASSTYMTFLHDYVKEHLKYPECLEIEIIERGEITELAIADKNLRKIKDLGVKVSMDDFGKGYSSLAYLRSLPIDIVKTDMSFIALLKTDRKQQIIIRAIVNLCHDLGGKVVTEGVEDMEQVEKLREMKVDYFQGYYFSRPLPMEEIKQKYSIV

In the case of Nc1nc2c(ncn2[C@@H]2O[C@@H]3COP(=O)(O)O[C@H]4[C@@H](O)[C@H](n5cnc6c(=O)[nH]c(N)nc65)O[C@@H]4COP(=O)(O)O[C@H]3[C@H]2O)c(=O)[nH]1 [c-di-GMP], the “HPLC of c-di-GMP hydrolysis to pGpG” value [1] is reported as “all three recombinant proteins possess c-di-GMP PDE activities in vitro”, the “HPLC of c-di-GMP hydrolysis to pGpG” value [2] is reported as “all three recombinant proteins possess c-di-GMP PDE activities in vitro” and the “HPLC of c-di-GMP hydrolysis to pGpG” value [3] is reported as “all three recombinant proteins possess c-di-GMP PDE activities in vitro”.
